{"source": "paper PMC11425263", "about": "“Otilonium Bromide Exhibits Potent Antifungal Effects by Blocking Ergosterol Plasma Membrane Localization and Triggering Cytotoxic Autophagy in Candida Albicans” (Advanced Science, 2024)", "molecular_target": "T1, Sec31 (Candida albicans, UniProt Q5AAU3)", "T1 construct": "gene PGA63; full-length with N-terminal GFP tag, expressed in C. albicans, tested in whole cell lysate; COPII coat component", "T1 sequence (Q5AAU3 1-1265)": "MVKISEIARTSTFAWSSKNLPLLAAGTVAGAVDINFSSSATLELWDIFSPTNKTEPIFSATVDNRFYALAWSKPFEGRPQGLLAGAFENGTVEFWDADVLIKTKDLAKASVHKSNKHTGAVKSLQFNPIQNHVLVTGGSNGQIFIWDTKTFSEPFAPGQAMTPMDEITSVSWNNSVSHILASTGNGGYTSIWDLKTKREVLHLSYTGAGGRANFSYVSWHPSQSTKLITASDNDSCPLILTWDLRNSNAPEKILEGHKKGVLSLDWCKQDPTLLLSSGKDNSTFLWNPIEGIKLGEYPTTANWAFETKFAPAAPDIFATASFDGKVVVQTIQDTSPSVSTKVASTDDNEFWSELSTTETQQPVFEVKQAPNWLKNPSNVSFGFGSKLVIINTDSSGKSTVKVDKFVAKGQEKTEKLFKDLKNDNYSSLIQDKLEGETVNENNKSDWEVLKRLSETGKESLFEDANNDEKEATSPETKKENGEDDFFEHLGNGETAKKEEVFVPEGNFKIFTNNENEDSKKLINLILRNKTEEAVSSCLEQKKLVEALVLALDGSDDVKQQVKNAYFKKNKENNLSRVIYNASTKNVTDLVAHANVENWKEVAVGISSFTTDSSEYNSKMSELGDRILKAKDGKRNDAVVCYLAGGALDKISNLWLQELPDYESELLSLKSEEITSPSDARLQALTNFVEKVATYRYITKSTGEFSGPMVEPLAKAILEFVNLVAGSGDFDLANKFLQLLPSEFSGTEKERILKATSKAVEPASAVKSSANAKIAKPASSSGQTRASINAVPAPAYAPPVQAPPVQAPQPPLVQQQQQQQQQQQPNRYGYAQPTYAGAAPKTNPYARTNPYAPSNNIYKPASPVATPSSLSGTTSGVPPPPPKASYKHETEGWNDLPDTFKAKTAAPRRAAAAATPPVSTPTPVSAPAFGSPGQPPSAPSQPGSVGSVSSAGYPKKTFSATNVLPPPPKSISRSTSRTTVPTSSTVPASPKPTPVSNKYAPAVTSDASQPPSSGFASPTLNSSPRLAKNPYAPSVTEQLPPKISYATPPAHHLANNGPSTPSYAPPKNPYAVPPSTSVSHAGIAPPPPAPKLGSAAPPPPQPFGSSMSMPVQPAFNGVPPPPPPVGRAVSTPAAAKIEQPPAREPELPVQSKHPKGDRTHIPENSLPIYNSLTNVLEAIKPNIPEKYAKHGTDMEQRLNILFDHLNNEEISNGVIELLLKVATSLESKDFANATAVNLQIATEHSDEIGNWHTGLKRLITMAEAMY", "assay": "DARTS, thermolysin protection, anti-GFP western blot", "assay_type": "biochemical", "conditions": "GFP-Sec31 cell lysate; OTB 3.125 to 12.5 µg/mL, 1 h room temperature; thermolysin 15 min; beta-tubulin as control", "data": [{"smiles": "CCCCCCCCOc1ccccc1C(=O)Nc1ccc(C(=O)OCC[N+](C)(CC)CC)cc1", "note": "[otilonium bromide]", "values": [{"measurement": "DARTS, thermolysin protection, anti-GFP western blot", "result": "OTB effectively shielded Sec31 from degradation induced by thermolysin"}]}]}
